Entries after “also recorded” stand apart in the source; their conditions may differ. Read-outs that look alike come from different tables or passages of the source.
Legend:
MMP-9 = target: T1, MMP-9 (Homo sapiens, UniProt P14780); assay: De novo T-DEL selection against MMP-9, NGS decoding; type: binding; conditions: for Enrichment Fold / Count: MMP9 selection; for Count: NGS sequence count per Compound ID (Figure 4a)
T1 construct: purchased Sino Biological 10327-HNAH
Text: Matrix metalloproteinases (MMPs) are zinc-dependent endopeptidases capable of degrading and remodeling extracellular matrix components[46],[47]. They are attractive therapeutic targets as high expression levels were detected in various diseases, such as inflammatory diseases, and at different stages of cancers, including metastasis, invasion, and angiogenesis[47]–[53]. As shown in Supplementary Fig. 3c, we performed selections against the two gelatinases (human MMP-2 and human MMP-9) to identify binding fragments for later design and synthesis of small molecule inhibitors. After selection, the three sub-libraries were decoded, and the enrichment was calculated by dividing the post-selection fraction (count/total counts) by the pre-selection fraction (Fig. 4a and Supplementary Fig. 13).
4 µg of MMP-2/MMP-9 was dissolved in 100 µl of selection buffer containing 25 mM Tris-base, 10 mM CaCl2, 150 mM NaCl, 0.05% Tween 20, pH 7.5. 10 µl of 4-Aminophenylmercuric acetate (APMA) (100 mM) solution was added to the protein solution and incubated at 37 °C for 1 h. After activation, the solution was added on top of 40 µl pre-washed Ni-NTA resin and incubated for 30 min on a rotary shaker. The supernatant was discarded, and the resin was washed three times with the selection buffer.
For each independent selection, three sub-libraries were mixed in the selection buffer with a final concentration of 40 nM of each sub-library in 100 µl. The mixture was heat denatured at 90 °C for 1 min and slowly cooled down to allow the formation of the trio-pharmacophore library. The dynamic dual-pharmacophore DEL was provided by DyNAbind GmbH (Merck, DYNA001).
The assembled library was incubated with the protein-bound solid support for 2 h at RT on a rotary shaker. In parallel, selection on bare solid support served as the negative control to exclude promiscuous binders on the resin. After panning, the supernatant was discarded, and the resin was washed three times with 1 ml selection buffer. Finally, 100 µl of 50 mM Tris buffer, pH 7.4 was added to resuspend the resin and the resin was incubated at 95 °C for 5 min to denature the protein, release, and collect the bound library members.
The eluted library members were subjected to sample preparation for NGS. NGS preparation was achieved by two-step PCR. First, the individual selection was indexed using primers containing unique sequences corresponding to each selection. The amplified product was purified from 2% agarose gel. Second, the purified DNA from all selections were pooled in equal amount and subjected to the 2nd PCR step to attach sequences compatible with the NGS flow cell and the sequencing primers. NGS was performed by Novogene UK with Novaseq 6000. Raw data files (fastq files) obtained were decoded using a custom python script and excel. The sequence reads corresponding to each sample was retrieved by searching for the correct index unique to each selection. Then, the code region was extracted from each sequence and assigned to the corresponding identity. The count of each code in each selection sample was obtained by looping through the total reads and counting the occurrence of each code. The enrichment fold of each compound was calculated by first, dividing the count by the total count to get the abundance, second, the abundance after the selection was divided by the abundance of pre-selection to reflect the distribution change of the compound. Next, the enrichment fold was plotted against the count for each member of the library to give the scatter plots as in Fig. 4.

MMP-2 = target: T2, MMP-2 (Homo sapiens, UniProt P08253); assay: MMP-2 inhibition assay (fluorogenic peptide substrate); type: biochemical; conditions: for remaining activity at 0.0156098 µM: fragment concentration 0.0156098 µM; for remaining activity at 0.0780488 µM: fragment concentration 0.0780488 µM; for remaining activity at 0.390244 µM: fragment concentration 0.390244 µM; for remaining activity at 1.95122 µM: fragment concentration 1.95122 µM; for remaining activity at 9.7561 µM: fragment concentration 9.7561 µM; for remaining activity at 48.7805 µM: fragment concentration 48.7805 µM; for remaining activity at 243.902 µM: fragment concentration 243.902 µM
T2 construct: purchased Sino Biological 10082-HNAH
T2 sequence (P08253 110-660): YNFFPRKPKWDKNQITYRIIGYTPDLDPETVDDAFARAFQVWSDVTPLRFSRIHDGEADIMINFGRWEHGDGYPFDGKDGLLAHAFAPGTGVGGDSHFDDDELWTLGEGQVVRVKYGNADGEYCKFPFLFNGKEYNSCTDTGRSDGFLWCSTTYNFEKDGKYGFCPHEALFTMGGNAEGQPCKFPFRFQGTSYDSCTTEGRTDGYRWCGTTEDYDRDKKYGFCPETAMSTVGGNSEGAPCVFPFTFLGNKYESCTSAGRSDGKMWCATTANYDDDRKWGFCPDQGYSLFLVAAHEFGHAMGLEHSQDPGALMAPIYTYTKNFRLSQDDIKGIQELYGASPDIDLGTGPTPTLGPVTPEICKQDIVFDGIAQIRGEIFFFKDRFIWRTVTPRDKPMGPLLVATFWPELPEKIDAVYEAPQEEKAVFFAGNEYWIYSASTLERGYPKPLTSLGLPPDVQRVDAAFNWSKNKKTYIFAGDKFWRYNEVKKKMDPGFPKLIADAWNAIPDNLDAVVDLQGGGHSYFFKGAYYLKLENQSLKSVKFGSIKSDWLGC
Outline: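 Human proMMP-2 and proMMP-9 were activated with 1 mM APMA for 2 h at 37 °C, then used at 6.5 nM (MMP-2) or 10 nM (MMP-9) final in Tris/NaCl/CaCl2/Brij 35 buffer, pH 7.5. After 30 min preincubation with compound at RT, 25 μM FRET peptide substrate was added and fluorescence (ex 280/em 360 nm) followed for 30 min. IC50 came from logistic fits of Vmax.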

[1] = Figure 5a, read-out: Normalized activity (Mean)
[2] = Figure 5a, fragment concentration 1219.51 µM, read-out: Normalized activity (Mean)
[3] = MMP-2, concentration 0.0156 µM, read-out: Mean (dose-response, Supplementary fig 17)
[4] = MMP-2, concentration 0.08 µM, read-out: Mean (dose-response, Supplementary fig 17)
[5] = MMP-2, concentration 0.39 µM, read-out: Mean (dose-response, Supplementary fig 17)
[6] = MMP-2, concentration 1.95 µM, read-out: Mean (dose-response, Supplementary fig 17)
[7] = MMP-2, concentration 9.76 µM, read-out: Mean (dose-response, Supplementary fig 17)
[8] = MMP-2, concentration 48.78 µM, read-out: Mean (dose-response, Supplementary fig 17)
[9] = MMP-2, concentration 243.90 µM, read-out: Mean (dose-response, Supplementary fig 17)
[10] = MMP-2, concentration 1219.51 µM, read-out: Mean (dose-response, Supplementary fig 17)

T1 sequence (P14780 107-707 limits assumed): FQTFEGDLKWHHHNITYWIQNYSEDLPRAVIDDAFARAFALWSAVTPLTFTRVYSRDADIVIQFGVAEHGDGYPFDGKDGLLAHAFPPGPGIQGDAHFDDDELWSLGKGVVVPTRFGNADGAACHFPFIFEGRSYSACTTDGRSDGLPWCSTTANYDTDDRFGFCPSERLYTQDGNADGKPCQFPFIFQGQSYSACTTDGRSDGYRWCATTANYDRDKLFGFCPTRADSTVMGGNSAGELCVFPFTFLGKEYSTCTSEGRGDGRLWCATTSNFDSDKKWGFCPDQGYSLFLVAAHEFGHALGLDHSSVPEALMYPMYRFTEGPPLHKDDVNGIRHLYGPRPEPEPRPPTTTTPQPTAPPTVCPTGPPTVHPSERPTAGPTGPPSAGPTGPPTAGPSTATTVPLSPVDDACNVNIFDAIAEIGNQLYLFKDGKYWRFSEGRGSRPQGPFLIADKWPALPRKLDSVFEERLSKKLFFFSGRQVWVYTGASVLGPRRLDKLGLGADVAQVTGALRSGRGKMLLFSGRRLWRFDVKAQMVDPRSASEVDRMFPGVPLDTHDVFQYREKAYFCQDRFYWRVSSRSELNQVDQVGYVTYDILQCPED

Which results are given for `O=C(O)CNC(=O)NC12CC3CC(CC(C3)C1)C2` [Compound 66]?
Enrichment Fold (MMP-9; sub-library SL-A (Figure 4a)): 2.103; Count (MMP-9; sub-library SL-A): 4968; Enrichment Fold (MMP-9; sub-library SL-C (Figure 4a)): 0.3958; Count (MMP-9; sub-library SL-C): 87; remaining activity at 0.0156098 µM (MMP-2; [1]): 92.7%; remaining activity at 0.0780488 µM (MMP-2; [1]): 95.8%; remaining activity at 0.390244 µM (MMP-2; [1]): 93.9%; remaining activity at 1.95122 µM (MMP-2; [1]): 110%; remaining activity at 9.7561 µM (MMP-2; [1]): 93.7%; remaining activity at 48.7805 µM (MMP-2; [1]): 92.7%; remaining activity at 243.902 µM (MMP-2; [1]): 92.2%; remaining activity at 1219.51 µM (MMP-2; [2]): 85.5%; remaining activity at 0.0156 µM (MMP-2; [3]): 92.7%; remaining activity at 0.08 µM (MMP-2; [4]): 95.8%; remaining activity at 0.39 µM (MMP-2; [5]): 93.9%; remaining activity at 1.95 µM (MMP-2; [6]): 110%; remaining activity at 9.76 µM (MMP-2; [7]): 93.7%; remaining activity at 48.78 µM (MMP-2; [8]): 92.7%; remaining activity at 243.9 µM (MMP-2; [9]): 92.2%; remaining activity at 1219.51 µM (MMP-2; [10]): 85.5%; inhibitory effect (MMP-2; in words): No inhibitory effects could be measured; also recorded: did not exhibit meaningful activity

Which “MMP9 SL-A Count” value (MMP-9; NGS sequence count of sub-library SL-A building block, de novo T-DEL selection against MMP-9) does the source give for `NCc1c[nH]nn1` [Compound 787] here?
Its value is 949.

What about the “MMP9 SL-C Count” value (MMP-9; NGS sequence count of sub-library SL-C building block, de novo T-DEL selection against MMP-9) of the same compound?
The value was 3684.

What about the “MMP9 SL-A Enrichment Fold” value (MMP-9; sub-library SL-A building block, de novo T-DEL selection against MMP-9) of the same compound?
The value was 0.9459.

What about the “MMP9 SL-C Enrichment Fold” value (MMP-9; sub-library SL-C building block, de novo T-DEL selection against MMP-9) of the same compound?
Its value is 3.649.

And the remaining activity at 0.0156098 µM (MMP-2; [1])?
The remaining activity at 0.0156098 µM was 101%.

What about the remaining activity at 0.0780488 µM (MMP-2; [1]) of the same compound?
Its remaining activity at 0.0780488 µM is 93.4%.

And the remaining activity at 0.390244 µM (MMP-2; [1])?
Its remaining activity at 0.390244 µM is 108%.

And the remaining activity at 1.95122 µM (MMP-2; [1])?
The remaining activity at 1.95122 µM was 92.2%.

What about the remaining activity at 9.7561 µM (MMP-2; [1]) of the same compound?
Its remaining activity at 9.7561 µM is 105%.

And the remaining activity at 48.7805 µM (MMP-2; [1])?
Its remaining activity at 48.7805 µM is 96.9%.

What about the remaining activity at 243.902 µM (MMP-2; [1]) of the same compound?
Its remaining activity at 243.902 µM is 87.8%.

What about the remaining activity at 1219.51 µM (MMP-2; [2]) of the same compound?
The remaining activity at 1219.51 µM was 57.1%.

What about the remaining activity at 0.0156 µM (MMP-2; MMP-2, concentration 0.0156 µM, read-out: Mean (MMP-2, Supplementary fig 16)) of the same compound?
The remaining activity at 0.0156 µM was 101%.

And the remaining activity at 0.08 µM (MMP-2; MMP-2, concentration 0.08 µM, read-out: Mean (MMP-2, Supplementary fig 16))?
The remaining activity at 0.08 µM was 93.5%.

And the remaining activity at 0.39 µM (MMP-2; MMP-2, concentration 0.39 µM, read-out: Mean (MMP-2, Supplementary fig 16))?
Its remaining activity at 0.39 µM is 108%.

And the remaining activity at 1.95 µM (MMP-2; MMP-2, concentration 1.95 µM, read-out: Mean (MMP-2, Supplementary fig 16))?
Its remaining activity at 1.95 µM is 92.2%.

And the remaining activity at 9.76 µM (MMP-2; MMP-2, concentration 9.76 µM, read-out: Mean (MMP-2, Supplementary fig 16))?
Its remaining activity at 9.76 µM is 105%.

And the remaining activity at 48.78 µM (MMP-2; MMP-2, concentration 48.78 µM, read-out: Mean (MMP-2, Supplementary fig 16))?
The remaining activity at 48.78 µM was 96.9%.

What about the remaining activity at 243.9 µM (MMP-2; MMP-2, concentration 243.90 µM, read-out: Mean (MMP-2, Supplementary fig 16)) of the same compound?
Its remaining activity at 243.9 µM is 87.8%.

What about the remaining activity at 0.0156 µM (MMP-2; MMP-2, concentration 0.0156 µM, read-out: Mean (MMP-2 dose-response, Supplementary fig 15)) of the same compound?
Its remaining activity at 0.0156 µM is 101%.

And the remaining activity at 0.0156 µM (MMP-2; [3])?
The remaining activity at 0.0156 µM was 101%.

What about the remaining activity at 0.08 µM (MMP-2; MMP-2, concentration 0.08 µM, read-out: Mean (MMP-2 dose-response, Supplementary fig 15)) of the same compound?
Its remaining activity at 0.08 µM is 93.5%.

What about the remaining activity at 0.08 µM (MMP-2; [4]) of the same compound?
The remaining activity at 0.08 µM was 93.5%.

And the remaining activity at 0.39 µM (MMP-2; MMP-2, concentration 0.39 µM, read-out: Mean (MMP-2 dose-response, Supplementary fig 15))?
Its remaining activity at 0.39 µM is 108%.

What about the remaining activity at 0.39 µM (MMP-2; [5]) of the same compound?
Its remaining activity at 0.39 µM is 108%.

What about the remaining activity at 1.95 µM (MMP-2; MMP-2, concentration 1.95 µM, read-out: Mean (MMP-2 dose-response, Supplementary fig 15)) of the same compound?
Its remaining activity at 1.95 µM is 92.2%.

And the remaining activity at 1.95 µM (MMP-2; [6])?
Its remaining activity at 1.95 µM is 92.2%.

What about the remaining activity at 9.75 µM (MMP-2; MMP-2, concentration 9.75 µM, read-out: Mean (MMP-2 dose-response, Supplementary fig 15)) of the same compound?
The remaining activity at 9.75 µM was 105%.

What about the remaining activity at 9.76 µM (MMP-2; [7]) of the same compound?
Its remaining activity at 9.76 µM is 105%.

What about the remaining activity at 48.76 µM (MMP-2; MMP-2, concentration 48.76 µM, read-out: Mean (MMP-2 dose-response, Supplementary fig 15)) of the same compound?
Its remaining activity at 48.76 µM is 96.9%.

And the remaining activity at 48.78 µM (MMP-2; [8])?
The remaining activity at 48.78 µM was 96.9%.

What about the remaining activity at 243.8 µM (MMP-2; MMP-2, concentration 243.80 µM, read-out: Mean (MMP-2 dose-response, Supplementary fig 15)) of the same compound?
Its remaining activity at 243.8 µM is 87.8%.

What about the remaining activity at 243.9 µM (MMP-2; [9]) of the same compound?
The remaining activity at 243.9 µM was 87.8%.

And the remaining activity at 1219.51 µM (MMP-2; [10])?
Its remaining activity at 1219.51 µM is 57.1%.

— paper PMC10023787, “Trio-pharmacophore DNA-encoded chemical library for simultaneous selection of fragments and linkers” (Nature Communications, 2023)
